We go through 1 compound from ChEMBL document CHEMBL4706519, “Evaluation of N-phenyl-2-aminothiazoles for treatment of multi-drug resistant and intracellular Staphylococcus aureus infections” (Eur J Med Chem, 2020).

A word on the half-life: it is the time needed for the level to fall by half in the phase considered.

Data set [1] relates to Streptococcus pneumoniae. Briefly: Antibacterial activity against methicillin-resistant Streptococcus pneumoniae ATCC 700677 assessed as inhibition of bacterial growth measured after 18 to 20 hrs by CLSI protocol based broth microdilution method. Format: functional. The following applies: time 18-20 hrs.
The nature of data set [2]: Selectivity index, ratio of maximum non-toxic concentration for human Caco-2 cells to MIC for methicillin-resistant Staphylococcus aureus USA300 NRS384. Format: toxicity.
Data set [3] concerns Staphylococcus aureus. Briefly: Antibacterial activity against methicillin-resistant Staphylococcus aureus USA400 NRS123 infected in mouse J774 cells assessed as log reduction in intracellular bacterial burden at 2 x MIC measured after 24 hrs. It is filed as functional.
Data set [4] deals with Staphylococcus aureus. Description: microbe, parasite or virus in culture. Particulars: NRS119.
In data set [5] the test system is Streptococcus pneumoniae. Briefly: Ratio of MBC to MIC for cephalosporin-resistant Streptococcus pneumoniae ATCC 51916 assessed as inhibition of bacterial growth measured after 18 to 20 hrs by CLSI protocol based broth microdilution method. It is filed as functional. The following applies: time 18-20 hrs. A general note: In broth dilution the organism is exposed to a series of concentrations in liquid medium.

The test system of data set [6] is Staphylococcus aureus. Briefly: Ratio of MBC to MIC against methicillin-sensitive Staphylococcus aureus NRS107 assessed as inhibition of bacterial growth measured after 18 to 20 hrs by CLSI protocol based broth microdilution method. Format: functional. Particulars: time 18-20 hrs.
The subject of data set [7] is J774. Briefly: Cytotoxicity against mouse J774 cells assessed as cell viability at 32 ug/ml incubated for 2 hrs by MTS assay. It is filed as cell-based. Particulars: j774, 2 h, dose 32 µg/ml. In general terms: Formazan colour is commonly taken as a measure of viable cells.
Data set [8] deals with Staphylococcus aureus. Briefly: microbe, parasite or virus in culture. The following applies: NRS107.
Data set [9] is described as follows: Half life in human liver microsomes at 0.1 uM in presence of NADPH by LC/MS/MS analysis.
For data set [10], the system named is Staphylococcus epidermidis. Briefly: Antibacterial activity against methicillin-resistant Staphylococcus epidermidis NRS101 assessed as inhibition of bacterial growth measured after 18 to 20 hrs by CLSI protocol based broth microdilution method. Format: functional. Particulars: time 18-20 hrs.

Values after ≈ are worked out from the molar mass of the structure shown.

Regarding `C/C(=N\NC(=N)N)c1ccc(Nc2nc(-c3ccc(C)cc3)cs2)cc1`, the MBC in data set [1] worked out at 8 mg/L (≈ 21.9 µM); in [4] it was 4 mg/L (≈ 11 µM); in data set [8] it was 2 mg/L (≈ 5.49 µM); in [10], 1 mg/L (≈ 2.74 µM). Moreover, the MIC was 2 mg/L (≈ 5.49 µM) in data set [1], 2 mg/L (≈ 5.49 µM) in [4], 2 mg/L (≈ 5.49 µM) in [8] and 1 mg/L (≈ 2.74 µM) in data set [10]. In data set [2], the selectivity ratio is 16. Also, the Activity in [3] is 1.19 log10CFU/ml; in [7], “Non-Toxic”. Also, the Ratio in data set [5] and in data set [6] was 1 each time. Moreover, in data set [9], the half-life at 0.1 µM amounted to 1.96 h.
